“And” between values parts separate entries of the source, which are not always exact repeats. Equal values may be shown once.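 These data come from cells grown in 96-well plates and exposed to compound for 48 hours at five concentrations. Abbreviation: GI50, concentration required for 50% inhibition of growth. TGI marks complete inhibition of growth.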
Key:
Experiment in all cases: NCI-60 cell line screen, 48 h
LXFL 529 NSCLC = tested on: LXFL 529 NSCLC
MALME-3M melanoma = tested on: MALME-3M melanoma
A498 renal = tested on: A498 renal
MOLT-4 leukemia = tested on: MOLT-4 leukemia
SK-MEL-5 melanoma = tested on: SK-MEL-5 melanoma
SF-268 CNS = tested on: SF-268 CNS
SF-539 CNS = tested on: SF-539 CNS
HOP-92 NSCLC = tested on: HOP-92 NSCLC
KM20L2 colon = tested on: KM20L2 colon
PC-3 prostate = tested on: PC-3 prostate

C=CC(=O)NC(N)=NC#N
TGI (LXFL 529 NSCLC): 250 µM | TGI (MALME-3M melanoma): 303 µM | TGI (A498 renal): 285 µM | GI50 (MOLT-4 leukemia): 197 µM | TGI (MOLT-4 leukemia): 555 µM | TGI (SK-MEL-5 melanoma): 301 µM | TGI (SF-268 CNS): 260 µM | TGI (SF-539 CNS): 303 µM | GI50 (HOP-92 NSCLC): 103 µM | TGI (HOP-92 NSCLC): > 63.7 µM and 252 µM | TGI (KM20L2 colon): 287 µM

CN(C)CC(=O)Nc1ccc2ncnc(Nc3ccc(Oc4cccc(C(F)(F)F)c4)c(Cl)c3)c2c1
GI50 (MALME-3M melanoma): 1.68 µM | TGI (MALME-3M melanoma): 3.36 µM | GI50 (A498 renal): 1.62 µM | TGI (A498 renal): 4.92 µM | GI50 (MOLT-4 leukemia): 2.14 µM | TGI (MOLT-4 leukemia): 6.36 µM | GI50 (SK-MEL-5 melanoma): 1.69 µM | TGI (SK-MEL-5 melanoma): 3.09 µM | GI50 (SF-268 CNS): 1.97 µM | TGI (SF-268 CNS): 5.44 µM | GI50 (SF-539 CNS): 1.73 µM | TGI (SF-539 CNS): 3.18 µM | GI50 (HOP-92 NSCLC): 1.27 µM | TGI (HOP-92 NSCLC): 3.55 µM | GI50 (PC-3 prostate): 1.82 µM | TGI (PC-3 prostate): 4.5 µM

COc1ccc(CCN(CC(=O)N(CC(N)=O)C2CCC[C@@H]2OCc2ccccc2)C(=O)CN(C(=O)CN(CCc2ccc(Cl)cc2)C(=O)CN(C(=O)CN(C)Cc2ccccc2F)[C@H](C)C2CCCCC2)[C@H](C)C2CCCCC2)cc1OC (some centres undefined)
GI50 (MALME-3M melanoma): 1.66 µM | TGI (MALME-3M melanoma): 46.2 µM | GI50 (A498 renal): 1.84 µM | TGI (A498 renal): > 50 µM | GI50 (MOLT-4 leukemia): 0.689 µM | TGI (MOLT-4 leukemia): 2.46 µM | GI50 (SK-MEL-5 melanoma): 1.7 µM | TGI (SK-MEL-5 melanoma): 8.62 µM | GI50 (SF-268 CNS): 1.29 µM | TGI (SF-268 CNS): > 50 µM | GI50 (SF-539 CNS): 1.43 µM | TGI (SF-539 CNS): 4.54 µM | GI50 (HOP-92 NSCLC): 1.3 µM | TGI (HOP-92 NSCLC): 31.3 µM | GI50 (PC-3 prostate): 1.37 µM | TGI (PC-3 prostate): > 50 µM

O=C(CCc1ccccc1)NS(=O)(=O)c1ccccc1
TGI (LXFL 529 NSCLC): > 100 µM | TGI (MALME-3M melanoma): > 100 µM | TGI (A498 renal): > 100 µM | TGI (MOLT-4 leukemia): > 100 µM | TGI (SF-268 CNS): > 100 µM | TGI (SF-539 CNS): > 100 µM | TGI (HOP-92 NSCLC): > 100 µM | TGI (KM20L2 colon): > 100 µM

CSc1nc2nn(Cc3ccccc3)cc2c(=O)[nH]1
TGI (LXFL 529 NSCLC): > 100 µM | TGI (MALME-3M melanoma): > 100 µM | TGI (A498 renal): > 100 µM | TGI (MOLT-4 leukemia): > 100 µM | TGI (SK-MEL-5 melanoma): > 100 µM | TGI (SF-268 CNS): > 100 µM | TGI (SF-539 CNS): > 100 µM | TGI (HOP-92 NSCLC): > 100 µM | TGI (KM20L2 colon): > 100 µM

COc1cc(-c2nc3sc(C)cn3c2/C=C2\C(=O)Nc3ccccc32)c(Br)c(OC)c1OC
GI50 (MALME-3M melanoma): 26.1 µM | TGI (MALME-3M melanoma): 78.5 µM | GI50 (A498 renal): 29 µM | TGI (A498 renal): 63.5 µM | GI50 (MOLT-4 leukemia): 36.4 µM | TGI (MOLT-4 leukemia): > 100 µM | GI50 (SK-MEL-5 melanoma): 19.5 µM | TGI (SK-MEL-5 melanoma): 43.2 µM | GI50 (SF-268 CNS): 44.7 µM | TGI (SF-268 CNS): > 100 µM | GI50 (SF-539 CNS): 19.2 µM | TGI (SF-539 CNS): 38.3 µM | GI50 (HOP-92 NSCLC): 26.7 µM | TGI (HOP-92 NSCLC): 77 µM | GI50 (PC-3 prostate): 32.2 µM | TGI (PC-3 prostate): > 100 µM

O=C(OCCCl)C1OC(n2cc(F)c(=O)[nH]c2=O)CC1O (centres undefined)
TGI (LXFL 529 NSCLC): > 100 µM | TGI (MALME-3M melanoma): > 100 µM | TGI (A498 renal): > 100 µM | TGI (MOLT-4 leukemia): > 100 µM | TGI (SK-MEL-5 melanoma): > 100 µM | TGI (SF-268 CNS): > 100 µM | TGI (SF-539 CNS): > 100 µM | TGI (HOP-92 NSCLC): > 100 µM | TGI (KM20L2 colon): > 100 µM

CC1=NN(C(=O)Nc2ccc(Cl)cc2)C(=O)C2CCC(=O)N12 (centres undefined)
TGI (LXFL 529 NSCLC): > 100 µM | TGI (A498 renal): > 100 µM | TGI (MOLT-4 leukemia): > 100 µM | TGI (SK-MEL-5 melanoma): > 100 µM | TGI (SF-268 CNS): > 100 µM | TGI (SF-539 CNS): > 100 µM | TGI (HOP-92 NSCLC): > 100 µM | TGI (KM20L2 colon): > 100 µM

CC(C)(C)c1cc(/C=N/NC(=O)c2ccccc2NC(=O)c2cccs2)c(O)c(C(C)(C)C)c1
GI50 (MALME-3M melanoma): 2.11 µM | TGI (MALME-3M melanoma): 26.7 µM | GI50 (A498 renal): 10.4 µM | TGI (A498 renal): 42.5 µM | GI50 (MOLT-4 leukemia): 0.872 µM | TGI (MOLT-4 leukemia): 20.6 µM | GI50 (SK-MEL-5 melanoma): 0.7 µM | TGI (SK-MEL-5 melanoma): > 100 µM | GI50 (SF-268 CNS): 0.668 µM | TGI (SF-268 CNS): > 100 µM | GI50 (SF-539 CNS): 1.93 µM | TGI (SF-539 CNS): 22.1 µM | GI50 (HOP-92 NSCLC): 4.44 µM | TGI (HOP-92 NSCLC): 80.5 µM | GI50 (PC-3 prostate): 2.8 µM | TGI (PC-3 prostate): > 100 µM

Source: PubChem BioAssay (NCI)
